{
  "source": "patent US4578468A",
  "about": "“Antibiotic LL-D42067β” (American Cyanamid Company, priority 1984, dated 1986)",
  "key": {"Staphylococcus aureus": {"system": "Staphylococcus aureus", "test": "in vitro antimicrobial spectrum, agar plate dilution (MIC)", "type": "cell-based", "conditions": "Mueller-Hinton agar", "method": "(§1) The in vitro antimicrobial spectrum of LL-D42067β was determined by the agar plate dilution method with Mueller-Hinton agar and an inoculum of each test organism of approximately 10^4 colony forming units delivered by the Steers replicating device. The minimal inhibitory concentration (MIC) in mcg/ml was defined as the lowest concentration of LL-D42067β that inhibited visible growth after 18 hours incubation at 35° C."}, "Candida albicans": {"system": "Candida albicans", "test": "in vitro antimicrobial spectrum, agar plate dilution (MIC)", "type": "cell-based", "conditions": "strain CA 300, 18 hours, 35° C., Mueller-Hinton agar", "method": "as §1"}, "Mycobacterium smegmatis": {"system": "Mycobacterium smegmatis", "test": "in vitro antimicrobial spectrum, agar plate dilution (MIC)", "type": "cell-based", "conditions": "Mycolicibacterium smegmatis, ATCC607; strain ATCC 607; 18 hours, 35° C., Mueller-Hinton agar", "method": "as §1"}, "[1]": {"system": "Acinetobacter calcoaceticus", "test": "in vitro antimicrobial spectrum, agar plate dilution (MIC)", "type": "cell-based", "conditions": "strain STFD 79-17, 18 hours, 35° C., Mueller-Hinton agar", "method": "as §1"}, "Saccharomyces cerevisiae": {"system": "Saccharomyces cerevisiae", "test": "in vitro antimicrobial spectrum, agar plate dilution (MIC)", "type": "cell-based", "conditions": "strain Y 15, 18 hours, 35° C., Mueller-Hinton agar", "method": "as §1"}, "[2]": {"system": "Staphylococcus epidermidis", "test": "in vitro antimicrobial spectrum, agar plate dilution (MIC)", "type": "cell-based", "conditions": "ATCC12228, strain ATCC 12228, 18 hours, 35° C., Mueller-Hinton agar", "method": "as §1"}, "Escherichia coli": {"system": "Escherichia coli", "test": "in vitro antimicrobial spectrum, agar plate dilution (MIC)", "type": "cell-based", "conditions": "35° C., Mueller-Hinton agar", "method": "as §1"}, "Streptococcus mutans": {"system": "Streptococcus mutans", "test": "in vitro antimicrobial spectrum, agar plate dilution (MIC)", "type": "cell-based", "conditions": "35° C., Mueller-Hinton agar", "method": "as §1"}, "gram-positive bacteria": {"system": "gram-positive bacteria", "test": "in vitro antimicrobial spectrum, summary", "type": "cell-based", "conditions": "summary of Table VI", "method": "as §1"}, "yeasts": {"system": "yeasts", "test": "in vitro antimicrobial spectrum, summary", "type": "cell-based", "conditions": "summary of Table VI", "method": "as §1"}, "[3]": {"conditions": "poultry; subject of a copending application; cited from earlier work"}},
  "data": [
    {"smiles": "COc1c2c(c(O)c3c(=O)c4c(oc13)[C@@H](O)CC[C@@H]4O)-c1c3c(c4cc(C)[nH]c(=O)c4c1O)OCO[C@H]3C2", "note": "(relative stereo) [LL-D42067β]", "values": [
      {"measurement": "MIC", "setting": "Staphylococcus aureus; 18 h, strain LL No. 45, 35° C.", "value": 0.12, "unit": "µg/mL"},
      {"measurement": "MIC", "setting": "Staphylococcus aureus; ATCC25923, 18 h, strain ATCC 25923, 35° C.", "value": 0.25, "unit": "µg/mL"},
      {"measurement": "MIC", "setting": "Candida albicans", "value": 512, "unit": "µg/mL"},
      {"measurement": "MIC", "setting": "Mycobacterium smegmatis", "value": 512, "unit": "µg/mL"},
      {"measurement": "MIC", "setting": "[1]", "value": 512, "unit": "µg/mL"},
      {"measurement": "MIC", "setting": "Saccharomyces cerevisiae", "value": 512, "unit": "µg/mL"},
      {"measurement": "MIC", "setting": "[2]", "value": 0.25, "unit": "µg/mL"},
      {"measurement": "MIC", "setting": "Escherichia coli; ATCC25922, strain ATCC 25922, 18 hours", "value": 512, "unit": "µg/mL"},
      {"measurement": "MIC", "setting": "Escherichia coli; strain No. 311, 18 hours", "value": 512, "unit": "µg/mL"},
      {"measurement": "MIC", "setting": "Streptococcus mutans; ATCC27352, strain ATCC 27352-1, 18 hours", "value": 0.25, "unit": "µg/mL"},
      {"measurement": "MIC", "setting": "Streptococcus mutans; strain BHI (b), 18 hours", "value": 0.25, "unit": "µg/mL"},
      {"measurement": "antibacterial activity (in words)", "setting": "gram-positive bacteria", "value": "active"},
      {"measurement": "activity against yeasts (in words)", "setting": "yeasts", "value": "moderately active"},
      {"measurement": "anticoccidial effect (in words)", "setting": "[3]", "value": "effective"}
    ]}
  ]
}
